# Results taken from patent publication US10081655B2, “Cationic antibacterial composition” (priority 2011, dated 2018).
# pEC50: −log10 of the molar value.
# Assays:
# [1] = system: Methicillin resistant S. aureus (ATCC 33591); assay: microbe, parasite or virus in culture; assay type: cell-based
# Procedure: For solid media, about 5% agar was used along with above mentioned composition. […] VSE and VRE were cultured in Brain Heart Infusion broth (Himedia). […] The 6 h grown culture was diluted to give effective cell concentration of about 10^5 cfu/mL which was then used for determining MIC.
# About 50 μL of these serial dilutions were added to the wells of 96 well plate followed by the addition of about 150 μL of bacterial solution. […] Each concentration had triplicate values and the whole experiment was done at least twice and the MIC value was determined by taking the average of triplicate O. D. values for each concentration and plotting it against concentration. The data was then subjected to sigmoidal fitting.
# [2] = system: Vancomycin restant S. aureus (Clinical isolate, MMC-20, VanA & VanB); assay: MIC, broth dilution method in Mueller-Hinton broth; assay type: cell-based; settings: VRSA
# Procedure: For vancomycin resistant staphylococcus aureus (VRSA; clinical isolate MMC-20), the MIC of compounds was determined by broth dilution method using Mueller-Hinton broth (MHB), as recommended by the National Committee for Clinical Laboratory Standards. About 5×10^4 bacterial cells in MHB culture were treated with different concentrations of compounds, and shaken for 16 h at 37° C. The minimum concentration at which there was no visible turbidity was taken as the MIC of that compound.
# MSSA [3] = assay: MBC by plating; assay type: cell-based, S. aureus; settings: against MSSA
# Procedure: (§1) All cationic antibacterial compounds and control (vancomycin) were assayed in a micro-dilution broth format. Stock solutions were made by serially diluting the compounds using autoclaved Millipore water or broth media. The antibacterial activity of the compounds was determined against Methicillin sensitive S. aureus (MSSA), Methicillin resistant S. aureus (MRSA), vancomycin sensitive Enterococcus faecium (VSE), vancomycin resistant Enterococcus faecium (VRE), and E. coli. Bacteria, to be tested, were grown for about 10 h in the suitable media, MSSA and MRSA were grown in Yeast-dextrose broth (about 1 g of beef extract, about 2 g of yeast extract, about 5 g of peptone and about 5 g of NaCl in about 1000 mL of sterile distilled water (pH-7)). For solid media, about 5% agar was used along with above mentioned composition. E. coli was cultured in Luria Bertani broth (about 10 g of tryptone, about 5 g of yeast extract, and about 10 g of NaCl in 1000 mL of sterile distilled water, pH −7). VSE and VRE were cultured in Brain Heart Infusion broth (Himedia). The bacterial samples were freeze dried and stored at about −80° C. About 5 μl of these stocks were added to about 3 ml of the nutrient broth and the culture was grown for about 6 h at about 37° C. prior to the experiments. This 6 h grown culture gives about 10^9 cfu/mL for MSSA and MRSA, while it was about 10^8 cfu/mL for E. coli, 10^9 cfu/mL for both VSE and VRE and this was determined by spread plating method. The 6 h grown culture was diluted to give effective cell concentration of about 10^5 cfu/mL which was then used for determining MIC.
# (§2) Compounds were serially diluted, in sterile water (2 fold dilution is employed) in a way that the working concentration was about 10 μM for MSSA MRSA, and VSE while for VRE and E. coli it was about 100 μM. About 50 μL of these serial dilutions were added to the wells of 96 well plate followed by the addition of about 150 μL of bacterial solution. The plates were then incubated at about 37° C., 150 rpm in the incubator and O.D at 600 nm was recorded at an interval of about 10 h and about 24 h using TECAN (Infinite series, M200 pro) Plate Reader. Each concentration had triplicate values and the whole experiment was done at least twice and the MIC value was determined by taking the average of triplicate O. D. values for each concentration and plotting it against concentration. The data was then subjected to sigmoidal fitting. From the curve the MIC value was determined, as the point in the curve where the O.D. was similar to that of control having no bacteria.
# (§3) MBC values were determined by plating about 50 μl of the solution and later counting the colonies after their development.
# E. coli [4] = assay: MIC, micro-dilution broth; assay type: cell-based
# Procedure: as §1, §2
# [5] = system: Methicillin sensitive S. aureus (MTCC 737); assay: MIC, micro-dilution broth; assay type: cell-based
# Procedure: as §1, §2
# [6] = system: Vancomycin resistant E. faecium (VanA, ATCC 51559); assay: MIC, micro-dilution broth; assay type: cell-based
# Procedure: as §1, §2
# [7] = system: Vancomycin sensitive E. faecium (ATCC 19634); assay: MIC, micro-dilution broth; assay type: cell-based
# Procedure: as §1, §2
# E. coli [8] = assay: MBC by plating; assay type: cell-based
# Procedure: as §1, §2, §3
# MRSA [9] = assay: MBC by plating; assay type: cell-based, S. aureus; settings: Staphylococcus aureus; against MRSA
# Procedure: as §1, §2, §3
# MRSA [10] = assay: Time-kill assay; assay type: cell-based, S. aureus; settings: 1×MIC, 6×MIC, 12×MIC, 0-3 h
# Procedure: The bactericidal activity was assessed by the kinetics or the rate at which it affects the killing action of the compound. Briefly MRSA grown in Yeast-Dextrose broth. […] Bacterial suspension containing specified concentrations of the compound along with negative control (which contains only 0.9% Saline) was incubated at 37° C. with shaking. Aliquots (20 μl) were removed from the cultures at 0, 1, 2 and 3 h and were serially diluted 10-fold in 0.9% saline and plated onto sterile Yeast-Dextrose agar medium. The number of viable cells was determined by plating the 10-fold serial dilution of each sample onto Yeast-dextrose agar medium. Plates were then incubated for 24 h at 37° C., CFU was counted and the total bacterial log10 CFU/ml was determined.
# MSSA [11] = assay: Cytoplasmic membrane depolarization assay (diSC3(5)); assay type: cell-based, S. aureus; settings: concentration as high as 40 μM
# Procedure: Midlog phase bacterial cells were harvested, washed with about 5 mM HEPES and about 5 mM glucose and resuspended in about 5 mM glucose, about 5 mM HEPES buffer and about 100 mM KCl solution in 1:1:1 ratio (about 10^8 cfu/ml). Measurements were made in a cuvette containing about 2 ml of bacterial suspension and about 2 μM diSC3(5). The fluorescence of the dye was monitored for about 10 min (MSSA) to about 20 min (E. coli) at R.T. spectrofluorometer at excitation wavelength of about 622 nm and emission wavelength of about 670 nm. Dye uptake, and resultant self quenching, was modulated by the membrane potential. After reaching the maximum uptake of the dye by bacteria, which was indicated by a minimum in dye fluorescence, (after about 10 min for S. aureus and about 20 min for E. coli) compounds (4 and 7) and control were added to the cells, and the decrease in potential was monitored by the increase in fluorescence for further about 10 min.
# [12] = system: Human Red Blood Cells (RBC); assay: Hemolytic assay; assay type: cell-based; settings: Erythrocyte, 1 h, about one hour at about 37° C., read-out: EC50 (hemolysis)
# Procedure: Fresh human blood was collected under aseptic conditions in heparinised vacutainers. vancomycin derivatives are serially diluted, in sterile water (about 2 fold dilution is employed) in a way that the working concentration is about 100 μM. Heparinised blood was centrifuged down at about 3500 rpm for about 5 min in order to separate Red Blood Cells and blood plasma. RBC's are then washed couple of times with PBS pH-7.4 and suspended in PBS such that the final concentration of RBC was about 5 vol %. About 150 μL of this is mixed with about 50 μL of serially diluted compound in 96 well plate. The plate was then incubated at about 37° C. for about one hour. Later, the plate was centrifuged down at about 3500 rpm for about 5 min. The lysed RBC releases haemoglobin which was present in the supernatant. The supernatant thus was pipetted out into another fresh 96 well plate and the absorbance was measured at about 540 nm.
# Percentage of hemolysis was determined as (A−A0)/(Atotal−A0)×100, where A is the absorbance of the test well, A0 the absorbance of solution without compound, and Atotal the absorbance of 100% hemolysis wells (with Triton X-100), all at 540 nm.
# Cytotoxicity assay (MTT) = assay type: cell-based; settings: human, HeLa cells (cervical cancer cells), about 24 h
# Procedure: Cytotoxity of compounds 4 and 7 was determined against HeLa cell line following well known MTT assay. Cells were grown in DMEM at about 37° C. in a humidified-air atmosphere (about 5% CO2/95% air) in DMEM complete medium, supplemented with about 10% heat inactivated Fetal Bovine Serum and about 100 units/mL penicillin G, about 100 µg/mL streptomycin. Cells were seeded into 96 well plate and kept under the above mentioned conditions till they attained about 80% confluency. Compounds were serially diluted, in sterile water (2 fold dilution is employed) in a way that the working concentration was 100 μM. 50 μL of these dilutions were added to the cells and the volume was made up to 200 μL using DMEM medium. Cells were kept under observation for about 24 h. Later the medium was removed, cells were washed thoroughly with PBS and about 100 μL of MTT solution (about 5 mg/mL) was added to the wells. After about 3 h the MTT was removed, cells were lysed using DMSO and the plate was read at about 570 nm. One containing no compound (untreated cell) and other with about 10 vol % Triton-X 100 solution were also used. Percentage of cell survival was calculated using the formula: (Atreated cells−Atriton-X cells)/(Auntreated cell−Atriton-X cells)×100
# A plot of % of survival against concentration of compound was plotted using Origin Pro software.
smiles,measurement,setting,value
CN[C@H](CC(C)C)C(=O)N[C@H]1C(=O)N[C@@H](CC(N)=O)C(=O)N[C@H]2C(=O)N[C@H]3C(=O)N[C@H](C(=O)N[C@H](C(=O)NCCCN(C)C)c4cc(O)cc(O)c4-c4cc3ccc4O)[C@H](O)c3ccc(c(Cl)c3)Oc3cc2cc(c3O[C@@H]2O[C@H](CO)[C@@H](O)[C@H](O)[C@H]2O[C@H]2C[C@](C)(N)[C@H](O)[C@H](C)O2)Oc2ccc(cc2Cl)[C@H]1O [Compound 1],MIC,"[1]; MRSA, ATCC 33591",0.61 µM
same,MIC,[2]; clinical isolate MMC-20,0.53 µM
same,MBC,MSSA [3],1.25 µM
same,MIC,E. coli [4]; against E. coli,50 µM
same,MIC,"[5]; MSSA, S. aureus MTCC 737",0.62 µM
same,MIC,"[6]; VRE, E. faecium VanA ATCC 51559",>100 µM
same,MIC,"[7]; VSE, E. faecium ATCC 19634",0.63 µM
same,MBC,E. coli [8]; against E. coli,50 µM
"CCCCCCCCCCCCCC[N+](C)(C)CCCNC(C)=O [Compound 14, N′-Acetyl N-tetradecyl N,N dimethyl 1,3 propanediamine]",MIC,E. coli [4]; against E. coli,>100 µM
same,MBC,E. coli [8]; against E. coli,>100 µM
CN[C@H](CC(C)C)C(=O)N[C@H]1C(=O)N[C@@H](CC(N)=O)C(=O)N[C@H]2C(=O)N[C@H]3C(=O)N[C@H](C(=O)N[C@H](C(=O)O)c4cc(O)cc(O)c4-c4cc3ccc4O)[C@H](O)c3ccc(c(Cl)c3)Oc3cc2cc(c3O[C@@H]2O[C@H](CO)[C@@H](O)[C@H](O)[C@H]2O[C@H]2C[C@](C)(N)[C@H](O)[C@H](C)O2)Oc2ccc(cc2Cl)[C@H]1O [Vancomycin],MIC,"[1]; Staphylococcus aureus, ATCC 33591 / MRSA",0.63 µM
same,MIC,[2]; Staphylococcus aureus,> 86 µM
same,MBC,MRSA [9],2.5 µM
same,MBC,"MSSA [3]; Staphylococcus aureus, MSSA",~2.5 µM
same,MBC,MSSA [3]; listed as Control,2.5 µM
same,MIC,E. coli [4]; Escherichia coli,80 to 100 µM
same,MIC,"[5]; Staphylococcus aureus, MSSA / MTCC737",0.63 µM
same,MIC,"[6]; Enterococcus faecium, ATCC 51559 / VRE",> 100 µM
same,MIC,"[7]; Enterococcus faecium, ATCC19634",0.6 µM
same,MBC,E. coli [8]; Escherichia coli,> 100 µM
same,MBC,"E. coli [8]; against E. coli, listed as Control",>100 µM
same,killing kinetics (in words),MRSA [10],relatively slow killing or bacteriostatic effect
same,membrane depolarization,MSSA [11],remained ineffective
same,pEC50,[12],< 4.00
same,EC50 at 24 h,Cytotoxicity assay (MTT),> 100 µM
